Test results reported in PubChem BioAssay (NCI).
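Test compounds were applied to cells in 96-well plates for 48 hours at 5 doses. Definition used: TGI = concentration required for complete inhibition of growth.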

Tests used:
Assay in all cases: NCI tumour cell line growth inhibition, 48 h
A498 renal = tested on: A498 renal
A549 NSCLC = tested on: A549 NSCLC
CAKI-1 renal = tested on: CAKI-1 renal
CCRF-CEM leukemia = tested on: CCRF-CEM leukemia
COLO 205 colon = tested on: COLO 205 colon
DLD-1 colon = tested on: DLD-1 colon
DMS 114 small cell lung = tested on: DMS 114 small cell lung
DMS 273 small cell lung = tested on: DMS 273 small cell lung
EKVX NSCLC = tested on: EKVX NSCLC
HCC-2998 colon = tested on: HCC-2998 colon
HCT-116 colon = tested on: HCT-116 colon
HCT-15 colon = tested on: HCT-15 colon
HL-60(TB) leukemia = tested on: HL-60(TB) leukemia
HOP-18 NSCLC = tested on: HOP-18 NSCLC
HOP-62 NSCLC = tested on: HOP-62 NSCLC
HOP-92 NSCLC = tested on: HOP-92 NSCLC
HT29 colon = tested on: HT29 colon
IGROV1 ovarian = tested on: IGROV1 ovarian
K-562 leukemia = tested on: K-562 leukemia
KM12 colon = tested on: KM12 colon
KM20L2 colon = tested on: KM20L2 colon
LOX IMVI melanoma = tested on: LOX IMVI melanoma
M19-MEL melanoma = tested on: M19-MEL melanoma
MALME-3M melanoma = tested on: MALME-3M melanoma
MCF7 breast = tested on: MCF7 breast
MOLT-4 leukemia = tested on: MOLT-4 leukemia
NCI-H226 lung = tested on: NCI-H226 lung
NCI-H23 lung = tested on: NCI-H23 lung
NCI-H460 lung = tested on: NCI-H460 lung
NCI-H522 lung = tested on: NCI-H522 lung
NCI/ADR-RES ovarian = tested on: NCI/ADR-RES ovarian
OVCAR-3 ovarian = tested on: OVCAR-3 ovarian
OVCAR-4 ovarian = tested on: OVCAR-4 ovarian
OVCAR-5 ovarian = tested on: OVCAR-5 ovarian
OVCAR-8 ovarian = tested on: OVCAR-8 ovarian
P388 leukemia = tested on: P388 leukemia
P388/ADR leukemia = tested on: P388/ADR leukemia
RPMI-8226 leukemia = tested on: RPMI-8226 leukemia
RXF 393 renal = tested on: RXF 393 renal
SF-268 CNS = tested on: SF-268 CNS
SF-295 CNS = tested on: SF-295 CNS
SF-539 CNS = tested on: SF-539 CNS
SK-MEL-2 melanoma = tested on: SK-MEL-2 melanoma
SK-MEL-28 melanoma = tested on: SK-MEL-28 melanoma
SK-MEL-5 melanoma = tested on: SK-MEL-5 melanoma
SK-OV-3 ovarian = tested on: SK-OV-3 ovarian
SN12C renal = tested on: SN12C renal
SN12K1 renal = tested on: SN12K1 renal
SNB-19 CNS = tested on: SNB-19 CNS
SNB-75 CNS = tested on: SNB-75 CNS
SNB-78 CNS = tested on: SNB-78 CNS
SW-620 colon = tested on: SW-620 colon
U251 CNS = tested on: U251 CNS
UACC-257 melanoma = tested on: UACC-257 melanoma
UACC-62 melanoma = tested on: UACC-62 melanoma
UO-31 renal = tested on: UO-31 renal
XF 498 CNS = tested on: XF 498 CNS
ACHN renal = tested on: ACHN renal
LXFL 529 NSCLC = tested on: LXFL 529 NSCLC
M14 melanoma = tested on: M14 melanoma
RXF-631 renal = tested on: RXF-631 renal
SR leukemia = tested on: SR leukemia
786-0 renal = tested on: 786-0 renal
TK-10 renal = tested on: TK-10 renal

For `CC(C)c1oc(=O)cc2c1C(O)C1OC(=O)C3(C)C(O)C4OC4C2(C)C13` (stereo not drawn), the TGI (A498 renal) was 1.41 µM, the TGI (A549 NSCLC) was 16.5 µM and the TGI (CAKI-1 renal) was 9.39 µM. It also gave a TGI (CCRF-CEM leukemia) of 3.07 µM, a TGI (COLO 205 colon) of 4.18 µM and a TGI (DLD-1 colon) of 8.57 µM. The TGI (DMS 114 small cell lung) was 6.31 µM, the TGI (DMS 273 small cell lung) was 5.93 µM and the TGI (EKVX NSCLC) was 9.84 µM. The TGI (HCC-2998 colon) was 7.92 µM, the TGI (HCT-116 colon) was 9.99 µM and the TGI (HCT-15 colon) was 41.6 µM. It also gave a TGI (HL-60(TB) leukemia) of 1.22 µM, a TGI (HOP-18 NSCLC) of 24.3 µM and a TGI (HOP-62 NSCLC) of 9.27 µM. For the same molecule, the TGI (HOP-92 NSCLC) was 2.38 µM, the TGI (HT29 colon) was 11.1 µM and the TGI (IGROV1 ovarian) was 20.6 µM. It also gave a TGI (K-562 leukemia) of 6.63 µM, a TGI (KM12 colon) of 24.9 µM and a TGI (KM20L2 colon) of 12.8 µM. It also gave a TGI (LOX IMVI melanoma) of 5.77 µM, a TGI (M19-MEL melanoma) of 7.75 µM and a TGI (MALME-3M melanoma) of 10 µM. For the same molecule, the TGI (MCF7 breast) was 5.23 µM, the TGI (MOLT-4 leukemia) was 2.13 µM and the TGI (NCI-H226 lung) was 19.3 µM. For the same molecule, the TGI (NCI-H23 lung) was 7.63 µM, the TGI (NCI-H460 lung) was 9.73 µM and the TGI (NCI-H522 lung) was 5.21 µM. The TGI (NCI/ADR-RES ovarian) was 96.9 µM, the TGI (OVCAR-3 ovarian) was 6.42 µM and the TGI (OVCAR-4 ovarian) was 12.4 µM. For the same molecule, the TGI (OVCAR-5 ovarian) was 27.2 µM, the TGI (OVCAR-8 ovarian) was 10.6 µM and the TGI (P388 leukemia) was 1.23 µM. For the same molecule, the TGI (P388/ADR leukemia) was 16.6 µM, the TGI (RPMI-8226 leukemia) was 4.1 µM and the TGI (RXF 393 renal) was 6.8 µM. It also gave a TGI (SF-268 CNS) of 25 µM, a TGI (SF-295 CNS) of 12.8 µM and a TGI (SF-539 CNS) of 4.19 µM. The TGI (SK-MEL-2 melanoma) was 7.71 µM, the TGI (SK-MEL-28 melanoma) was 12.7 µM and the TGI (SK-MEL-5 melanoma) was 1.77 µM. The TGI (SK-OV-3 ovarian) was 20.3 µM, the TGI (SN12C renal) was 7.05 µM and the TGI (SN12K1 renal) was 9.37 µM. For the same molecule, the TGI (SNB-19 CNS) was 4.41 µM, the TGI (SNB-75 CNS) was 7.92 µM and the TGI (SNB-78 CNS) was 52 µM. For the same molecule, the TGI (SW-620 colon) was 19 µM, the TGI (U251 CNS) was 25 µM and the TGI (UACC-257 melanoma) was 10.8 µM. The TGI (UACC-62 melanoma) was 7.44 µM, the TGI (UO-31 renal) was 15.5 µM and the TGI (XF 498 CNS) was 1.95 µM.
In the case of `O=C=C=P(c1ccccc1)(c1ccccc1)c1ccccc1`, the TGI (A549 NSCLC) is reported as greater than 100 µM, the TGI (ACHN renal) is reported as greater than 100 µM and the TGI (CAKI-1 renal) is reported as greater than 100 µM. It also gave a TGI (CCRF-CEM leukemia) greater than 100 µM, a TGI (COLO 205 colon) of 75.7 µM and a TGI (DLD-1 colon) greater than 100 µM. The TGI (DMS 114 small cell lung) was greater than 100 µM, the TGI (DMS 273 small cell lung) was greater than 100 µM and the TGI (EKVX NSCLC) was greater than 100 µM. It also gave a TGI (HCC-2998 colon) greater than 100 µM, a TGI (HCT-116 colon) greater than 100 µM and a TGI (HCT-15 colon) greater than 100 µM. For the same molecule, the TGI (HL-60(TB) leukemia) was 92.4 µM, the TGI (HOP-18 NSCLC) was greater than 100 µM and the TGI (HOP-92 NSCLC) was 85.1 µM. For the same molecule, the TGI (IGROV1 ovarian) was greater than 100 µM, the TGI (K-562 leukemia) was greater than 100 µM and the TGI (KM12 colon) was greater than 100 µM. It also gave a TGI (LOX IMVI melanoma) greater than 100 µM, a TGI (LXFL 529 NSCLC) greater than 100 µM and a TGI (M14 melanoma) greater than 100 µM. The TGI (M19-MEL melanoma) was greater than 100 µM, the TGI (MALME-3M melanoma) was greater than 100 µM and the TGI (MOLT-4 leukemia) was greater than 100 µM. The TGI (NCI-H226 lung) was greater than 100 µM, the TGI (NCI-H23 lung) was greater than 100 µM and the TGI (NCI-H460 lung) was greater than 100 µM. It also gave a TGI (OVCAR-4 ovarian) greater than 100 µM, a TGI (OVCAR-5 ovarian) of 92.8 µM and a TGI (OVCAR-8 ovarian) greater than 100 µM. It also gave a TGI (RPMI-8226 leukemia) greater than 100 µM, a TGI (RXF 393 renal) greater than 100 µM and a TGI (RXF-631 renal) greater than 100 µM. For the same molecule, the TGI (SF-268 CNS) was greater than 100 µM, the TGI (SF-295 CNS) was greater than 100 µM and the TGI (SF-539 CNS) was greater than 100 µM. For the same molecule, the TGI (SK-MEL-2 melanoma) was greater than 100 µM, the TGI (SK-MEL-28 melanoma) was greater than 100 µM and the TGI (SK-MEL-5 melanoma) was 46.2 µM. The TGI (SK-OV-3 ovarian) was greater than 100 µM, the TGI (SN12C renal) was greater than 100 µM and the TGI (SNB-19 CNS) was greater than 100 µM. It also gave a TGI (SNB-75 CNS) of 83.6 µM, a TGI (SNB-78 CNS) greater than 100 µM and a TGI (SR leukemia) greater than 100 µM. It also gave a TGI (SW-620 colon) greater than 100 µM, a TGI (U251 CNS) greater than 100 µM and a TGI (UACC-257 melanoma) greater than 100 µM. The TGI (UO-31 renal) was greater than 100 µM and the TGI (XF 498 CNS) was 89.7 µM.
`Cc1cccc(C)c1NC(=O)CCC(=O)NC(N)=NC#N` was tested, and the TGI (786-0 renal) was greater than 100 µM, the TGI (A498 renal) was greater than 100 µM and the TGI (A549 NSCLC) was greater than 100 µM. The TGI (ACHN renal) was greater than 100 µM, the TGI (CAKI-1 renal) was greater than 100 µM and the TGI (CCRF-CEM leukemia) was greater than 100 µM. The TGI (COLO 205 colon) was greater than 100 µM, the TGI (DLD-1 colon) was greater than 100 µM and the TGI (DMS 114 small cell lung) was greater than 100 µM. The TGI (EKVX NSCLC) was greater than 100 µM, the TGI (HCC-2998 colon) was greater than 100 µM and the TGI (HCT-116 colon) was greater than 100 µM. It also gave a TGI (HCT-15 colon) greater than 100 µM, a TGI (HL-60(TB) leukemia) greater than 100 µM and a TGI (HOP-18 NSCLC) greater than 100 µM. For the same molecule, the TGI (HOP-62 NSCLC) was greater than 100 µM, the TGI (HOP-92 NSCLC) was greater than 100 µM and the TGI (HT29 colon) was greater than 100 µM. For the same molecule, the TGI (IGROV1 ovarian) was greater than 100 µM, the TGI (K-562 leukemia) was greater than 100 µM and the TGI (KM12 colon) was greater than 100 µM. It also gave a TGI (KM20L2 colon) greater than 100 µM, a TGI (LOX IMVI melanoma) greater than 100 µM and a TGI (LXFL 529 NSCLC) greater than 100 µM. For the same molecule, the TGI (M14 melanoma) was greater than 100 µM, the TGI (M19-MEL melanoma) was greater than 100 µM and the TGI (MALME-3M melanoma) was greater than 100 µM. For the same molecule, the TGI (MOLT-4 leukemia) was greater than 100 µM, the TGI (NCI-H226 lung) was greater than 100 µM and the TGI (NCI-H23 lung) was greater than 100 µM. For the same molecule, the TGI (NCI-H460 lung) was greater than 100 µM, the TGI (NCI-H522 lung) was greater than 100 µM and the TGI (OVCAR-3 ovarian) was greater than 100 µM. It also gave a TGI (OVCAR-4 ovarian) greater than 100 µM, a TGI (OVCAR-5 ovarian) greater than 100 µM and a TGI (OVCAR-8 ovarian) greater than 100 µM. For the same molecule, the TGI (RPMI-8226 leukemia) was greater than 100 µM, the TGI (RXF 393 renal) was greater than 100 µM and the TGI (RXF-631 renal) was greater than 100 µM. It also gave a TGI (SF-268 CNS) greater than 100 µM, a TGI (SF-295 CNS) greater than 100 µM and a TGI (SF-539 CNS) greater than 100 µM. It also gave a TGI (SK-MEL-28 melanoma) greater than 100 µM, a TGI (SK-MEL-5 melanoma) greater than 100 µM and a TGI (SK-OV-3 ovarian) greater than 100 µM. For the same molecule, the TGI (SN12C renal) was greater than 100 µM, the TGI (SNB-19 CNS) was greater than 100 µM and the TGI (SNB-75 CNS) was greater than 100 µM. The TGI (SR leukemia) was greater than 100 µM, the TGI (SW-620 colon) was greater than 100 µM and the TGI (TK-10 renal) was greater than 100 µM. The TGI (U251 CNS) was greater than 100 µM, the TGI (UACC-257 melanoma) was greater than 100 µM and the TGI (UACC-62 melanoma) was greater than 100 µM. It also gave a TGI (UO-31 renal) greater than 100 µM and a TGI (XF 498 CNS) greater than 100 µM.
